In the test the test system is lactobacilli. The test is described as follows: Inhibition of growth and acid-production of lactobacilli at different pH. Format: cell-based.

For “benzoic acid [benzoic acid and/or its sodium salt]”, the “inhibition effect on the growth and acid-production of lactobacilli” value (under a relatively high pH value (e.g., pH>4.6)) is “became weak”; the “inhibition effect on the growth and acid-production of lactobacilli” value (under a relatively low pH value (e.g., pH<4.0)) is “relatively strong inhibition effect”.

Values taken from US20080193428A1, “Composition and Method for Modulating and Maintaining Vaginal Bacterial Flora and Vaginal Acidity” (Shenzhen Phlora Biotechnology Limited, priority 2005, published 2008).
